For series [1] the following is noted: from C=CCCCSC[C@@H](NC(=O)OC(C)(C)C)C(=O)N1C[C@H](Oc2nccc3cc(OC)ccc23)C[C@H]1C(=O)N[C@]1(C(=O)OCC)C[C@H]1C=C; rcm bond; Grubbs II (tricyclohexylphosphine[1,3-bis(2,4,6-trimethylphenyl)-4,5-dihydroimidazol-2-ylidene][benzylidene]ruthenium(IV) dichloride); 1,2-dichloroethane; 3.48 mM; 83.0 °C; 16.0 h.
Series [2] concerns the target T1, HCV NS3/4A protease complex, BMS strain (genotype 1a) (UniProt P27958, C1454S/C1711G, species not given/STRAIN_BMS).
T1 construct: b1001: DNA encoding the recombinant HCV NS3/4A protease complex (amino acids 1027 to 1711) ... a three-lysine solubilizing tail was added at the 3′-end of the NS4A coding region; fused on or other part: Three-lysine solubilising tail at the C-terminus of NS4A; A His tag is implied by the pET21b vector and Ni-NTA purification
The series is described as follows: Recombinant HCV NS3/4A protease complex FRET peptide assay, BMS strain. Format: biochemical. To be noted: NS3/4A BMS Strain; activity range classes. The text has this:
Recombinant HCV NS3/4A Protease Complex FRET Peptide Assay
The purpose of this in vitro assay was to measure the inhibition of HCV NS3 protease complexes, derived from the BMS strain, H77C strain or J416S strain, as described below, by compounds of the present invention. This assay provides an indication of how effective compounds of the present invention would be in inhibiting HCV proteolytic activity.
Serum from an HCV-infected patient was obtained from Dr. T. Wright, San Francisco Hospital. An engineered full-length cDNA (compliment deoxyribonucleic acid) template of the HCV genome (BMS strain) was constructed from DNA fragments obtained by reverse transcription-PCR (RT-PCR) of serum RNA (ribonucleic acid) and using primers selected on the basis of homology between other genotype 1a strains. From the determination of the entire genome sequence, a genotype 1a was assigned to the HCV isolate according to the classification of Simmonds et al. (See P Simmonds, K A Rose, S Graham, S W Chan, F McOmish, B C Dow, E A Follett, P L Yap and H Marsden, J. Clin. Microbiol., 31(6), 1493–1503 (1993)). […] The infectious clones, H77C (1a genotype) and J4L6S (1b genotype) were obtained from R. Purcell (NIH) and the sequences are published in Genbank (AAB67036, see Yanagi, M., Purcell, R. H., Emerson, S. U. and Bukh, J. Proc. Natl. Acad. Sci. U.S.A. 94(16), 8738–8743 (1997); AF054247, see Yanagi, M., St Claire, M., Shapiro, M., Emerson, S. U., Purcell, R. H. and Bukh, J, Virology 244 (1), 161–172. (1998)).
The H77C and J4L6S strains were used for production of recombinant NS3/4A protease complexes. DNA encoding the recombinant HCV NS3/4A protease complex (amino acids 1027 to 1711) for these strains were manipulated as described by P. Gallinari et al. (see Gallinari P, Paolini C, Brennan D, Nardi C, Steinkuhler C, De Francesco R. Biochemistry. 38(17):5620–32, (1999)). Briefly, a three-lysine solubilizing tail was added at the 3′-end of the NS4A coding region. The cysteine in the P1 position of the NS4A-NS4B cleavage site (amino acid 1711) was changed to a glycine to avoid the proteolytic cleavage of the lysine tag. Furthermore, a cysteine to serine mutation was introduced by PCR at amino acid position 1454 to prevent the autolytic cleavage in the NS3 helicase domain. The variant DNA fragment was cloned in the pET21b bacterial expression vector (Novagen) and the NS3/4A complex was expressed in Escherichia coli strain BL21 (DE3) (Invitrogen) following the protocol described by P. Gallinari et al. (see Gallinari P, Brennan D, Nardi C, Brunetti M, Tomei L, Steinkuhler C, De Francesco R., J. Virol. 72(8):6758–69 (1998)) with modifications. Briefly, NS3/4A expression was induced with 0.5 mM Isopropyl β-D-1-thiogalactopyranoside (IPTG) for 22 hr at 20° C. A typical fermentation (10 L) yielded approximately 80 g of wet cell paste. The cells were resuspended in lysis buffer (10 mL/g) consisting of 25 mM N-(2-Hydroxyethyl)piperazine-N′-(2-Ethane Sulfonic acid) (HEPES), pH7.5, 20% glycerol, 500 mM Sodium Chloride (NaCl), 0.5% Triton-X100, 1 microgram/milliliter (“μg/mL”) lysozyme, 5 mM Magnesium Chloride (MgCl2), 1 ug/ml DnaseI, 5 mM β-Mercaptoethanol (βME), Protease inhibitor—Ethylenediamine Tetraacetic acid (EDTA) free (Roche), homogenized and incubated for 20 mins at 4° C. The homogenate was sonicated and clarified by ultra-centrifugation at 235000 g for 1 hr at 4° C. Imidazole was added to the supernatant to a final concentration of 15 mM and the pH adjusted to 8.0. The crude protein extract was loaded on a Nickel-Nitrilotriacetic acid (Ni-NTA) column pre-equilibrated with buffer B (25 mM HEPES, pH8.0, 20% glycerol, 500 mM NaCl, 0.5% Triton-X100, 15 mM imidazole, 5 mM βME). The sample was loaded at a flow rate of 1 mL/min. The column was washed with 15 column volumes of buffer C (same as buffer B except with 0.2% Triton-X100). The protein was eluted with 5 column volumes of buffer D (same as buffer C except with 200 mM Imidazole). […]

Series [3] deals with HCV replicon. The series is described as follows: Three-drug combination studies in HCV replicon system, combination index. Format: cell-based. As to conditions: mono-therapy in the three-drug combination experiment, HCV replicon, read-out: NS5A inhibitor EC50. Here is the method: […] an NS5B replicase inhibitor (compound 2006; WO 03/010141), were tested in 2-drug combinations with the macrocyclic HCV NS3 protease inhibitor compound 28. In addition, compound 28 was also tested in 3-drug combinations with the NS5A and NS5B inhibitors.
For the experiments shown in Tables 8 and 9, inhibitors were tested at eleven concentrations each. 200× stock solutions of each inhibitor concentration were prepared by 2- or 3-fold dilution in DMSO prior to addition to cells/media. The drugs were tested as monotherapies and in combination with the NS3 protease inhibitor at various concentration ratios. Cells were exposed to compounds for 4 days and the amount of HCV inhibition was then determined using the FRET assay. The potential cytotoxicities of these combined agents were also analyzed in parallel by Alamar Blue staining. […] The degree of antagonism, additivity, or synergy was determined over a range of drug concentrations, and combination response curves were fit to assess the antiviral effects of the drug treatment combinations. The concentration ratios were analyzed using the method of Chou (Chou, Ting-Chao, and Rideout (Editors), (1991) Synergism and Antagonism in Chemotherapy, P. 61–101, Academic Press, New York). Tables 8 and 9 report the estimated EC50 values for the compounds tested, as well as the combination indices (CI). All estimates were computed using SAS Proc NLIN, and a two-parameter logistic. All combination indices were tested for departure from additivity using isobologram methods. Asymptotic confidence intervals were also calculated for each of the combination indices. These intervals are used to test for departure from additivity by comparing the bounds to one—a lower bound of the interval greater than 1 indicates antagonism, an upper bound of less than 1 indicates synergism, and a value of 1 contained in the interval indicates additivity.
Compound 28 was also tested in 3-drug combination experiments with the NS5A inhibitor and the NS5B inhibitor (Table 12). The starting concentrations for the mono-therapies consisted of a 0.667 μM solution of the NS5A inhibitor, a 0.3 μM solution of compound 28, and a 2.5 μM solution of the NS5B inhibitor. The starting concentration for the triple combination contained a mixture of ⅓ of each of the above concentrations. Dose response curves for all three mono-therapies and the triple combination therapy were obtained using 3-fold dilutions, and data analysis was carried out as described above for combination index experiments.
Background: In antiviral work, replicon cells carry a viral genome segment that copies itself.

The subject of series [4] is HCV replicon. The series is described as follows: Two-drug combination matrix studies in HCV replicon system, Universal Response Surface Approach (URSA). Format: cell-based. As to conditions: Hepatitis C virus, matrix study with NS5A inhibitor, URSA estimate (Table 10). As to the method: In addition to the combination index approach, above, the Universal Response Surface Approach (URSA) was also used to assess the antiviral effects of combinations of NS5A or NS5B inhibitors with the NS3 protease inhibitor. The experiments were conducted in a matrixed format with 8 concentrations of NS3 protease inhibitor crossed against 10 concentrations of NS5A or NS5B inhibitor on each of three plates. 200× stock solutions of each inhibitor concentration were prepared by 3-fold dilution in DMSO. Effects on replication were assessed in the HCV replicon system as described above. The data was analyzed using the URSA as described in Greco, Park and Rustum (Greco, Park, Sook, and Rustum (1990) Application of a New Approach for the Quantitation of Drug Synergism to the Combination of cis-Diamminedichloroplatinum and 1-β-D-Arabinofuranosylcytosine, Cancer Research, 50, 5318–5327). The interaction of the two drugs was assessed by using non-linear regression with a bisection algorithm. Seven parameters were estimated. These include the minimal response or response in the absence of drug, the maximal response or response in the presence of infinite drug, EC50's for the two drugs, slope parameters for the two drugs, and the drug interaction parameter α which provides the assessment of synergism, antagonism or additivity. Additivity is implied when α is equal to zero, synergy if the interaction parameter is larger than zero, and antagonism when the interaction parameter is less than zero. The confidence interval for the interaction parameter is also presented. This interval is used to test for departure from additivity by comparing the bounds to zero—a lower bound of the interval greater than zero indicates synergy, an upper bound of less than zero indicates antagonism, and a value of zero contained in the interval indicates additivity.

The subject of the next series is HCV. As to conditions: cited from earlier work.

This is an account of results in patent US7173004B2, “Macrocyclic isoquinoline peptide inhibitors of hepatitis C virus” (Bristol-Myers Squibb Company, priority 2003, dated 2007).

By IC50 is commonly meant the concentration needed to halve the response being measured. The term EC50 denotes the concentration needed to bring the measured effect to its halfway point.

On to `CCOC(=O)[C@@]12C[C@H]1C=CCCCSC[C@@H](NC(=O)OC(C)(C)C)C(=O)N1C[C@H](Oc3nccc4cc(OC)ccc34)C[C@H]1C(=O)N2`, for which the ring closure, yield of all isomers in series [1] was 73%. Consider `COc1ccc2c(O[C@@H]3C[C@H]4C(=O)N[C@]5(C(=O)O)C[C@H]5/C=C\COCC[C@H](NC(=O)OC(C)(C)C)C(=O)N4C3)nccc2c1` [Compound 140], for which, in series [2], the 50% inhibitory concentration (IC50) fell in the range of 5000 to 50000 nM.

As for `O=C(Nc1ccc(C2S/C(=N\c3ccc(N4CCOCC4)cc3)N(Cc3cccnc3)C2=O)cc1)[C@@H]1CCCN1C(=O)CCc1ccccc1` (stereo partly shown) [NS5A inhibitor, reference compound], the EC50 in the series on HCV replicon [3] (Hepatitis C virus) was 5 nM; in the series on HCV replicon [3], 9 nM; with HCV replicon [4], 8 nM. With “alpha-interferon and ribavirin [reference compound]”, in the series on HCV (HCV patients), the sustained efficacy is on record as 40 % of patients. Turning to pegylated alpha-interferon, in the series with HCV (clinical results, monotherapy), the “efficacy as monotherapy compared with unmodified alpha-interferon” value is “superior to unmodified alpha-interferon”.
